Among the data in the CheMixHub viscosity set are viscosity values, retold here.

Values joined by “and” are separate entries in the source; they are usually repeats but may differ in a detail not shown here. Equal values may be shown once. ± gives the uncertainty stated by the source.

For orientation: viscosity means the internal friction of a fluid under shear. Read a high viscosity as sluggish flow.

Under “298.15 K, 101 kPa”, `CC(C)CN` returned a viscosity of 0.563 ± 0.015 mPa·s.
On to `CC(O)C(=O)[O-].CN(C)C(=N)[NH+](C)C`, for which the viscosity is, setting by setting: (303.15 K, 101 kPa) 13700 ± 1300 mPa·s; (308.15 K, 101 kPa) 7300 ± 640 mPa·s; (313.15 K, 101 kPa) 3960 ± 320 mPa·s; (318.15 K, 101 kPa) 2260 ± 160 mPa·s; (323.15 K, 101 kPa) 1370 ± 90 mPa·s.
`CCCCCCCC/C=C\CCCCCCCC(=O)O`: the viscosity (298.15 K, 101 kPa) was found to be 35.41 ± 0.43 mPa·s and the viscosity (323.15 K, 101 kPa) is on record as 14.38 ± 0.2 mPa·s.
With `CCOS(=O)(=O)[O-].CC[n+]1ccn(C)c1`, the viscosity was 96.87 ± 4.1 mPa·s and 95.9 ± 2.1 mPa·s (298.15 K, 100 kPa); 95.9 ± 1.4 mPa·s and 95.5 ± 2.7 mPa·s (298.15 K, 101 kPa); 76.51 ± 3.2 mPa·s and 75.7 ± 1.6 mPa·s (303.15 K, 100 kPa); 75.63 ± 0.97 mPa·s and 75.4 ± 2 mPa·s (303.15 K, 101 kPa); 61.6 ± 2.5 mPa·s (308.15 K, 100 kPa); 61.6 ± 2.5 mPa·s (313.15 K, 100 kPa). Besides, the viscosity is, setting by setting: (313.15 K, 101 kPa) 49.45 ± 0.51 mPa·s; (318.15 K, 100 kPa) 50.5 ± 2.1 mPa·s; (323.15 K, 100 kPa) 35.03 ± 1.5 mPa·s; (323.15 K, 101 kPa) 34.24 ± 0.33 mPa·s.
`O=C1CCCN1`: the viscosity was determined as 10.5 ± 0.28 mPa·s (304.15 K, 101.33 kPa); 9.102 ± 0.24 mPa·s (308.15 K, 101.33 kPa); 7.687 ± 0.2 mPa·s (313.15 K, 101.33 kPa); 6.593 ± 0.17 mPa·s (318.15 K, 101.33 kPa); 5.666 ± 0.15 mPa·s (323.15 K, 101.33 kPa).
In turn, `OCCC1CCCCN1` (centres undefined) gave a viscosity (313.15 K, 101.3 kPa) of 77.17 ± 1.5 mPa·s.
